# According to article PMC12610274, “Identification of Marrubiin as a Cathepsin C Inhibitor for Treating Rheumatoid Arthritis” (Molecules, 2025):
# Legend:
# Cat G = assay: AIA model, serum Cat G activity; assay type: in vivo, Sprague-Dawley rats; details: rat AIA, high dose 60 mg/kg gavage, 15 days
# Method: Thirty 4-week-old male Sprague-Dawley rats (weighing 120–130 g) were randomly divided into 6 groups (5 rats per group) after 1 week of adaptive feeding, namely the normal group, model group, low-dose experimental group (15 mg/kg), medium-dose experimental group (30 mg/kg), high-dose experimental group (60 mg/kg), and positive control group (30 mg/kg). Starting from Day 0 of the experiment, rats in the administration groups and model group were injected intradermally with 0.1 mL of CFA into the left hind paw to induce AIA, while rats in the normal group were injected intradermally with an equal volume (0.1 mL) of normal saline as a control. After 13 consecutive days of feeding, rats treated with CFA successfully developed typical AIA symptoms. […] During the experiment, the body weight, mental state, activity ability, hair color changes, and paw appearance changes of the rats were observed and recorded daily. In addition, on Day 0 of the experiment (baseline period), the basic paw volume of all rats was accurately measured using a plethysmometer, which served as a reference standard for subsequent evaluation of inflammation severity. From Day 13 to Day 28 of the experiment, the paw volume of the rats was measured repeatedly every 3 days. The degree of paw swelling was quantified by calculating the change in paw volume relative to the baseline. […] The cytokine levels in serum were measured. […]
# CTSC [1] = molecular target: T1, CTSC (Homo sapiens, UniProt P53634); assay: Human recombinant CTSC isolated enzyme assay; assay type: biochemical; design: purchased R&D Systems; details: human recombinant CTSC, cell-free, 12-point dose-response; read-out: CTSC Enz (IC50: nM)
# Method: Both recombinant CTSL and CTSC for in vitro cell-free-based enzymatic activity assay can be purchased from R&D Systems (Minneapolis, MN, USA), a biotechnology company. According to the standardized procedures and material ratios provided by R&D Systems, prepare the activation solution (25 mM MES + 5 mM DTT, pH 6.0) and the assay solution (25 mM MES + 50 mM NaCl + 5 mM DTT, pH 6.0) in advance for later use. Dilute the detection substrate H-Gly-Arg-AMC to a 200 µM solution with the assay solution for standby. Prepare the working solution of compounds to be tested using the assay solution, with the concentration of working solution being 10 times the final test concentration. Dilute CTSC and CTSL, respectively, with cold activation solution. Thoroughly mix the two activation solutions containing the proteins to achieve final concentrations of 300 nM for CTSL and 440 nM for CTSC. After co-incubation for 1 h, the activated CTSC treated with CTSL can be used for the enzymatic activity inhibition efficacy test of compounds. Dilute the activated CTSC to 4.4 nM with cold assay buffer. Incubate 4 μL of the activated CTSC with 1 μL of the compound working solution (test group) or 1 μL of blank assay solution (control group) at room temperature for 3 h. Then, add 5 μL of the detection substrate to achieve a final concentration of 100 μM. Mix 5 µL each of the assay solution and the substrate solution as the blank group. After 1 h, the absorbance of detection substrate was measured using a multifunctional microplate reader at excitation/emission wavelengths of 380 nm/460 nm. The inhibitory efficacy of molecules on enzyme activity was calculated based on the absorbance difference between test group and control group. […] Each group of tests mentioned above was independently repeated at least 3 times, and IC50 values were calculated using SPSS 10.0.
# Target sequence in this assay (P53634 25-134 limits assumed): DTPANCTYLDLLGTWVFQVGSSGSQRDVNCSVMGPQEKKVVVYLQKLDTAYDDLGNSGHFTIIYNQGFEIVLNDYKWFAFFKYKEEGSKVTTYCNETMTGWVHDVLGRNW
# Target sequence in this assay (P53634 231-394 limits assumed): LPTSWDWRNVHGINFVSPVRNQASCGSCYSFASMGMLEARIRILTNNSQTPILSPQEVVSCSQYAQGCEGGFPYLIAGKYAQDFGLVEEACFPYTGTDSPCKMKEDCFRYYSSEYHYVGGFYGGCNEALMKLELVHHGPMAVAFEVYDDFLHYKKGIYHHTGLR
# Target sequence in this assay (P53634 395-463 limits assumed): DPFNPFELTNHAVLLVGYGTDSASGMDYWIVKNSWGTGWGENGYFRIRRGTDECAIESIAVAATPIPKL
# NE = assay: NSPs activity in U937 cells after 5 days of treatment, NE; assay type: cell-based, human; details: U937, 10 μM
# Method: (§1) U937 cells in the logarithmic growth phase were collected and equally divided into six portions. Four of these portions were treated with DMSO solutions of the test compound at varying concentrations to achieve final concentrations of 1.25, 2.5, 5, and 10 μM, respectively. An equal volume of DMSO was added to one portion as a blank control, while another portion treated with a DMSO solution of AZD7986 served as a positive control. The cells were cultured under standard U937 conditions for 5 consecutive days, with daily medium changes and fresh compound treatments administered using the same protocol. Following 5 days of treatment, cells were harvested, washed twice thoroughly with phosphate-buffered saline, and lysed in phosphate-buffered saline containing 1% Triton X-100. The lysates were centrifuged to collect the supernatant, and protein concentrations were determined as previously described to ensure equal total protein loading across all samples. The prepared samples were stored at −20 °C until further analysis. Different assay buffers were prepared for diluting samples and measuring the activities of specific NSPs: a buffer containing 50 mM Tris and 750 mM NaCl (pH 7.4) was used for NE and PR3; a buffer containing 50 mM Tris, 750 mM NaCl, 5 mM EDTA (pH 7.4) was used for Cat G; and a buffer containing 25 mM MES, 50 mM NaCl, 5 mM DTT (pH 6.0) was used for CTSC. […]
# CTSC [2] = molecular target: T1, CTSC; assay: CTSC activity in U937 cells after 5 days of treatment; assay type: cell-based; design: endogenous in cells; host or cells: U937; details: U937, 5 days, marrubiin and AZD7986 at the same concentration
# Method: as §1
# Target sequence in this assay (P53634 25-463): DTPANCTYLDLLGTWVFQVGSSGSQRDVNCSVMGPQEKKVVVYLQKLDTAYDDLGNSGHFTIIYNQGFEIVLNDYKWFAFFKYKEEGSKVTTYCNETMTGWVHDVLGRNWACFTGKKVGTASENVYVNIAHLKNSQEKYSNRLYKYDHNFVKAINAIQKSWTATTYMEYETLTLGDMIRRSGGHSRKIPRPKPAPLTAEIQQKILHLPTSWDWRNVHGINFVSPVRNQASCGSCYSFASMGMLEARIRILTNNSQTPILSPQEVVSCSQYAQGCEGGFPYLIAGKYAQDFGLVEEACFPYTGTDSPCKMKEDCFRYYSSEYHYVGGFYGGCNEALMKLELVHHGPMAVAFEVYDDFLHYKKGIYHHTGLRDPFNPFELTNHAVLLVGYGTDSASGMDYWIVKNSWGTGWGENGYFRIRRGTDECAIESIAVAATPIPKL
compound,measurement,setting,value
"C[C@@H]1C[C@H]2OC(=O)[C@@]3(C)CCC[C@@](C)([C@@H]23)[C@@]1(O)CCc1ccoc1 [Marrubiin, marrubiin]","serum Cat G activity, % of control group",Cat G,~64%
same,IC50,CTSC [1],57.5 ± 1.3 nM
same,"NE activity, % of DMSO group",NE,8.2%
same,residual CTSC activity,CTSC [2],less than 8%
